Test results published in US20090137643A1, “Methods for Inhibiting or Reversing Tau Filament Fibrillization” (priority 2003, published 2009).
Several values for one entry are separate records, joined by “and”; a condition that tells them apart may be missing. Identical values can stand only once. Entries after “also recorded” stand apart in the source; their conditions may differ. Like-named read-outs stand apart in the source and are kept apart here.

Key:
Format in all cases: biochemical
Aβ1-40 = target: T1, Aβ1-40 (Homo sapiens, UniProt P05067); test: Aβ1-40 aggregation, turbidity at 400 nm; settings: Aβ1-40 20 μM, 4.1 μM N744, 5 hours
T1 construct: Human Aβ1-40 (Bachem; Philadelphia, Pa.); purchased Bachem
T1 sequence (P05067 672-711 limits assumed): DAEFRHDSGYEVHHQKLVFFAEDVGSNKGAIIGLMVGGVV
Description: Aβ1-40 Aggregation. Aggregation was initiated by diluting the Aβ stock solution to 20 μM final concentration in aggregation buffer (150 mM NaCl, 10 mM 2-[N-morpholino]ethanesulfonic acid, pH 6.2; final volume 300 μl). Turbidity resulting from Aβ aggregation in the presence (4.1 μM final concentration) and absence of […] was monitored as a function of time in a Beckman DU640B spectrophotometer at 400 nm versus a DMSO vehicle blank (Snyder et al., Biophys 67: 1216-1228 (1994); Evans et al., Proc. Natl. Acad. Sci U.S.A. 92: 763-767 (1995)). Cuvettes were vortexed before each reading. […] Selectivity of tau Fibrillization Antagonism. […] To determine whether amyloid binding was accompanied by fibrillization inhibitory activity, the ability of […] to inhibit Aβ1-40 assembly was examined. In the absence of ligand, Aβ1-40 (20 μM) polymerized spontaneously after a lag of about 80 minutes.

htau40 filaments = target: T2, htau40 filaments (Homo sapiens, UniProt P10636); test: Tau disaggregation: preformed htau40 filaments, quantitative electron microscopy
T2 construct: polyhistidine; made in house
T2 sequence (P10636 1-441 isoform P10636-8): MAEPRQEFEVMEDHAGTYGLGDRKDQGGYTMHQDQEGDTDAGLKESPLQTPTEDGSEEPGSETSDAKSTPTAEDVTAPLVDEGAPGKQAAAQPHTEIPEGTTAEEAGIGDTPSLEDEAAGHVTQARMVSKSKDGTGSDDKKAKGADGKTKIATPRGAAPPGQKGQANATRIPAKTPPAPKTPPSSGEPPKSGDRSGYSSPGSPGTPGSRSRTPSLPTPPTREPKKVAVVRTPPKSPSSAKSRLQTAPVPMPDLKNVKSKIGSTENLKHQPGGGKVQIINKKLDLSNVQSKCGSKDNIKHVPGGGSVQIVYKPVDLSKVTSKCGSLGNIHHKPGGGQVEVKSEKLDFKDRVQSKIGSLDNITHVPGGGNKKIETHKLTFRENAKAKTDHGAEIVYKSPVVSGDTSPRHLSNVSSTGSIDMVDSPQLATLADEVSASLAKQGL
Description: Tau Disaggregation. Solutions of purified htau40 (4 μM) were polymerized under standard conditions as described above for 3.5 hours, then divided into two separate tubes. One tube received N744 at a final concentration of 4.7 μM, whereas the second tube received DMSO vehicle alone. Aliquots were removed from each sample after 0, 1, 3, 5, 9, 12, and 19 hours incubation and subjected to the electron microscopy assay described below. Control (no N744) reactions were normalized for DMSO vehicle, which was kept below 5.7% (v/v) in all reactions.
(§1) Transmission Electron Microscopy. Aliquots (50 μl) of aggregation and disaggregation reactions were removed, fixed with glutaraldehyde (2%), and adsorbed (1 minute) onto 300 mesh formvar/carbon-coated copper grids (Electron Microscopy Sciences; Ft. Washington, Pa.). The resultant grids were washed with water, stained (1 minute) with 2% uranyl acetate (Electron Microscopy Sciences), washed again with water, blotted dry, and viewed in a Phillips CM 12 microscope operated at 65 kV. Three to five random images from each experimental condition were captured on film at 22,000× magnification, digitized, calibrated, and imported into Optimas 6.5.1 for quantitation of filament length and number as described previously (King et al., J. Neurochem 74: 1749-1757 (2000). An individual filament is defined as any object greater than 50 nm in its long axis. Filaments were counted manually. Filament counts are reported as an average±standard deviation for both total filament length and total filament number. Length distributions were quantified in 25 nm (assembly) or 50 nm (disassembly) wide bins.
N744 Promotes tau Filament Disaggregation. […] To test this hypothesis, htau40 (4 μM) was polymerized with arachidonic acid (75 μM) over a 3.5 hour period after which time equal aliquots were treated with N744 (4.7 μM) or DMSO vehicle alone and filament numbers and lengths were measured over a 19 hour “chase” by electron microscopy. In the absence of N744, total htau40 filament length decreased 23±4% over this time period (FIG. 4). Because sample dilution was only 6% in the experimental paradigm, it appeared that DMSO alone destabilized tau filaments at these concentrations. In contrast, addition of N744 (4.7 μM) led to a more rapid decrease in total filament length so that 87±13% of total filament length was lost over the 19 hour time course. The initial rate of filament loss was well modeled as a first order decay (r^2=0.981; k=0.12±0.01 h^−1) under these conditions (FIG. 4).

amylin = target: T3, amylin (Homo sapiens, UniProt P10997); test: Amylin aggregation, qualitative electron microscopy; settings: amylin 50 μM, 4.1 μM N744, 24 hour period
T3 construct: purchased Bachem
T3 sequence (P10997 34-70 limits assumed): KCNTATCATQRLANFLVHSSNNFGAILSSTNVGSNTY
Description: Amylin Aggregation. Aggregation was initiated by diluting the peptide in 10 mM Tris-HCl, pH 7.3 to a final concentration of 50 μM (Goldsbury et al., J. Struct. Biol. 130: 352-362 (2000)) in the presence or absence of 4.1 μM N744. Aliquots were removed after 0, 1, 3, 5, 7, and 24 hours and prepared for EM as described above.
The activity of N744 on another amyloid-forming protein, amylin (Goldsbury et al., J. Struct. Biol. 130: 352-362 (2000)), was also examined.

htau40 = target: T4, htau40 (Homo sapiens, UniProt P10636); test: Tau aggregation: arachidonic acid-induced htau40 fibrillization, quantitative transmission electron microscopy; design: IC50 for inhibition of tau fibrillization relative to molar concentration of arachidonic acid: unit not given here; settings: for filament length distribution versus DMSO vehicle control: 3 hours at 37° C.; for IC50: N744 0.12-4.1 μM
T4 construct: polyhistidine; made in house
T4 sequence (P10636 1-441 isoform P10636-8): as the sequence (P10636 1-441 isoform P10636-8) above
Description: Tau Aggregation. Purified recombinant htau40 was polymerized as described previously (King et al., Biochemistry 38: 14851-14859 (1999); Wilson et al., Am. J. Pathol 150: 2181-2195 (1997); King et al., J. Neurochem 74: 1749-1757 (2000)). Under standard conditions, 4 μM (final concentration) htau40 was incubated with arachidonic acid in Assembly Buffer (10 mM 4-[2-hydroxyethyl]-1-piperazineethanesulfonic acid, 100 mM NaCl, and 5 mM DTT) at either room temperature or at 37° C. Fibrillization was induced by the addition of arachidonic acid (75-100 μM) and continued for 3 to 6 hours until analyzed by electron microscopy as described below. When present, N744 final concentration varied between 0.12 and 4.1 μM in aggregation assays. (N744 final concentration of up to 4.7 μM was used in disaggregation assays (see below)). Control reactions were normalized for DMSO vehicle, which was limited to no more than 5% (v/v) in all reactions.
as §1

[1] = htau40 4 μM, arachidonic acid 75 μM, 3.5 hours at 37° C.

- net first order rate of filament loss, corrected for dilution and DMSO vehicle (htau40 filaments; 4.7 μM N744, htau40 4 μM): 0.10 ± 0.02 h⁻¹
- initial first order rate of decrease of total filament length (htau40 filaments; 4.7 μM N744 added to filaments from htau40 4 μM, 19 hour chase): 0.12 ± 0.01 h⁻¹
- total filament length as % of vehicle only control (htau40 filaments; after 19 hours incubation with 4.7 μM N744): 13±2%
- total filament length lost (htau40 filaments; over 19 hour time course, 4.7 μM N744): 87±13%
- IC50 for inhibition of tau fibrillization relative to molar concentration of arachidonic acid (htau40): < 0.01
- tau fibrillization (total number or total length of filaments) (htau40; 4.1 μM N744, about 1:1 with htau40 4 μM, arachidonic acid 75 μM): greatly inhibited
- filament length distribution versus DMSO vehicle control (htau40; N744 ≧1.2 μM, htau40 4 μM): significant shortening
- Hill slope, total filament length (htau40; [1]): 1.84±0.14
- Hill slope, total filament number (htau40; [1]): 1.61±0.10
- IC50 (htau40; htau40 4 μM, arachidonic acid 75 μM, 3.5 hours at 37° C., read-out: IC50, inhibition of total filament length): 0.294 µM and < 0.3 µM and ~0.3 µM
- IC50 (htau40; htau40 4 μM, arachidonic acid 75 μM, 3.5 hours at 37° C., read-out: IC50, inhibition of total filament number): 0.272 ± 0.017 µM
- filament length distribution versus DMSO vehicle control (htau40; low N744 concentrations (≦410 nM), htau40 4 μM): did not differ significantly
Structure (SMILES): CCC(/C=C1\Sc2ccc(OC)cc2N1CCO)=C\c1sc2ccc(OC)cc2[n+]1CCO [N744, 3-(2-hydroxyethyl)-2-[2-[[3-(2-hydroxyethyl)-5-methoxy-2-benzothiazolylidene]methyl]-1-butenyl]-5-methoxybenzothiazolium]
- effect on Aβ1-40 fibrillization (Aβ1-40): did not appreciably modulate the extent or half-life; also recorded: little effect
- filament number per length bin relative to DMSO only control (htau40 filaments; 19 hours, 4.7 μM N744, 50 nm bins): significantly fewer filaments in every bin
- effect on amylin fibrillization (amylin): did not interfere; also recorded: did not modulate
